From patent publication US12691070B2, “Cationic lipids and preparation method thereof” (RiboX Therapeutics HK Limited, priority 2023, dated 2026)

Columns and labels:
[1] = RNA encapsulation efficacy by Quant-IT Ribogreen kit; format: physicochemical; details: for Encapsulation Efficiency %: LNP with cirRNA (SEQ ID NO: 1); for Encapsulation Efficiency: LNP with mRNA (SEQ ID NO: 2)
Summary of the method: (§1)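 LNPs of ionizable lipid/DSPC/cholesterol/DMG-PEG 2000 (50:10:38.5:1.5) made by microfluidic mixing of luciferase circRNA or mRNA in pH 4.5 acetate with lipids in ethanol (3:1, 12 ml/min), ionizable lipid:nucleotide 15 or 6, then dialyzed against PBS. Size, PDI (DLS) and zeta potential on Zetasizer; encapsulation by Ribogreen ± Triton X-100.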

BALB/C mice [2] = assay: Local tolerance determination by footpad injection; format: in vivo; details: cirRNA (SEQ ID NO: 1) LNP, 0.175 mg*kg-1 subcutaneous into the footpad, 24 hours post minus prior
Description: 6-8 week old, female BALB/C mice were injected with 0.175 mg*kg-1 RNA LNPs by subcutaneous injection into the footpad. Prior to, and 24 hours post injections, injected footpad thickness was determined by a caliper.

[3] = tested on: Alanine Aminotransferase (ALT); assay: Liver enzyme elevation in serum, ALT; format: in vivo; details: cirRNA (SEQ ID NO: 1) LNPs, BALB/C mice, intravenous 0.5 MPK
Description: (§2) 6-8 week old, female BALB/C mice were injected with 0.5 mg*kg-1 of RNA LNPs by intravenous injection. At 2 and 24 hours post injection, animals were bled and sera concentrations of Alanine Aminotransferase (ALT) and Aspartate Aminotransferase (AST) were determined by a blood chemistry analyzer.

[4] = LNP size and polydispersity index (PDI) by dynamic light scattering; format: physicochemical; details: for Size: in nm (unit assumed)
Summary of the method: as §1

BALB/C mice [5] = assay: In vivo expression, whole-body luminescence (IVIS)
Description: 6-8 week old, female BALB/C mice were injected with 0.05 mg*kg-1 of RNA-LNPs encoding for firefly-luciferase by intravenous injection. At 6 hours post injection, animals were intraperitoneally injected with 15 mg/ml of Luciferin substrate and whole-body luminescence was determined by a bioluminescent in vivo imaging system (IVIS).

MCP-I = MCP-I cytokine elevation in serum; format: in vivo; details: cirRNA (SEQ ID NO: 1) LNPs, mice
Description: 6-8 week old, female BALB/C mice were injected with 0.5 mg*kg-1 of RNA LNPs by intravenous injection. At 2 and 24 hours post injection, animals were bled and sera concentrations of MCP-I were determined by an immunoassay (Luminex).

[6] = tested on: Aspartate Aminotransferase (AST); assay: Liver enzyme elevation in serum, AST; format: in vivo; details: cirRNA (SEQ ID NO: 1) LNPs, BALB/C mice, intravenous 0.5 MPK
Description: as §2

[7] = LNP zeta potential (Zetasizer); format: physicochemical
Summary of the method: as §1

Hep G2 cells [8] = assay: In vitro toxicity (CellTiter-Glo cell viability), Hep G2; format: cell-based;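 also: percent of untreated cells luminescence signal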
Summary of the method: (§3)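 Cells were transfected with RNA-LNPs at 1 μg/mL and, 72 hours later, viability was measured by CellTiter-Glo luminescence. Values are cell viability calculated from the luminescence signal.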

RAW 264.7 cells [9] = assay: In vitro toxicity (CellTiter-Glo cell viability), RAW 264.7; format: cell-based;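 also: percent of untreated cells luminescence signal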
Summary of the method: as §3

Hep G2 cells [10] = assay: In vitro expression of firefly-luciferase, Hep G2; format: cell-based
Summary of the method: (§4)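 Cells were transfected with firefly-luciferase-encoding RNA-LNPs at 100 ng/mL. After 72 hours they were washed and lysed, and luciferase activity in the lysates was read by luminometry.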

RAW 264.7 cells [11] = assay: In vitro expression of firefly-luciferase, RAW 264.7; format: cell-based
Summary of the method: as §4

[12] = cirRNA (SEQ ID NO: 1) LNPs, BALB/C mice
[13] = mRNA (SEQ ID NO: 2) LNP, 0.05 mg*kg-1 intravenous, 6 hours post injection
[14] = cirRNA (SEQ ID NO: 1) LNPs, Hep G2 cells
[15] = mRNA (SEQ ID NO: 2) LNP, 1 μg/mL, 72 hours post transfection
[16] = cirRNA (SEQ ID NO: 1) LNPs, RAW 264.7 cells
[17] = cirRNA (SEQ ID NO: 1) LNPs, firefly-luciferase luminescence, Hep G2 cells
[18] = mRNA (SEQ ID NO: 2) LNP, 100 ng/mL, 72 hours post transfection, luciferase activity
[19] = cirRNA (SEQ ID NO: 1) LNPs, firefly-luciferase luminescence, RAW 264.7 cells

Row | SMILES | Encapsulation Efficiency % [1] | Encapsulation Efficiency [1] | Footpad Thickness (24 h−0 h, mm) (BALB/C mice [2]) | ALT in Sera (IU/L) 2 hours After 0.5 MPK Injection [3] | ALT in Sera (IU/L) 24 hours After 0.5 MPK Injection [3] | PDI ([4]; LNP with cirRNA (SEQ ID NO: 1)) | Size ([4]; LNP with cirRNA (SEQ ID NO: 1)) | PDI ([4]; LNP with mRNA (SEQ ID NO: 2)) | Size ([4]; LNP with mRNA (SEQ ID NO: 2)) | In vivo Expression (Whole Body) (BALB/C mice [5]; [12]) | In vivo Expression (Whole Body) (BALB/C mice [5]; [13]) | MCP-I in Sera 2 hours After 0.5 MPK Injection (MCP-I) | MCP-I in Sera 24 hours After 0.5 MPK Injection (MCP-I) | AST in Sera (IU/L) 2 hours After 0.5 MPK Injection [6] | AST in Sera (IU/L) 24 hours After 0.5 MPK Injection [6] | Zeta (mV) ([7]; LNP with cirRNA (SEQ ID NO: 1)) | Zeta (mV) ([7]; LNP with mRNA (SEQ ID NO: 2)) | In vitro Viability HepG2 (Hep G2 cells [8]; [14]) | In vitro Viability HepG2 (Hep G2 cells [8]; [15]) | In vitro Viability RAW (RAW 264.7 cells [9]; [16]) | also measured
1 | CCCCCCCCC(CCCCCCCC)OC(=O)CCCCCCCN(CCCCCCCCOC(=O)C(CCCCCC)CCCCCCCC)CCCOC(=O)NCCCN(C)C (stereo not drawn) [Lipid 348] | 98% | 83.15% | 0.78 mm | 82.33 IU/L | 96.33 IU/L | 0.2546 | 100.8 | 0.1488 | 101.8 | 6.47E+07 | 1.87E+07 | 1894.33 pg/mL | 128.60 pg/mL | 307.00 IU/L | 148.00 IU/L | 1.734 mV | 8.774 mV | 65% | 60% | 73% | In vitro Viability RAW (RAW 264.7 cells [9]; [15]): 77%; In vitro Expression HepG2 (Hep G2 cells [10]; [17]): 1.59E+06; In vitro Expression HepG2 (Hep G2 cells [10]; [18]): 1.45E+07; In vitro Expression RAW (RAW 264.7 cells [11]; [19]): 2.47E+05; In vitro Expression RAW (RAW 264.7 cells [11]; [18]): 2.52E+03
2 | CCCCCCCCC(CCCCCCCC)OC(=O)CCCCCCCN(CCCCCCCCOC(=O)C(CCCCCC)CCCCCCCC)CCCOC(=O)NCCN1CCCCC1 (stereo not drawn) [Lipid 351] | 95% | 66.39% | 0.68 mm | 74.33 IU/L | 149.33 IU/L | 0.1705 | 99.16 | 0.3512 | 178.8 | 1.35E+08 | 1.71E+08 | 3172.67 pg/mL | 1133.74 pg/mL | 232.67 IU/L | 389.33 IU/L | −0.1951 mV | −4.142 mV | 96% | 87% | 98% | In vitro Viability RAW (RAW 264.7 cells [9]; [15]): 94%; In vitro Expression HepG2 (Hep G2 cells [10]; [17]): 1.87E+06; In vitro Expression HepG2 (Hep G2 cells [10]; [18]): 1.00E+07; In vitro Expression RAW (RAW 264.7 cells [11]; [19]): 6.44E+05; In vitro Expression RAW (RAW 264.7 cells [11]; [18]): 3.41E+06
3 | CCCCCCCCC(CCCCCCCC)OC(=O)CCCCCCCN(CCCCCCCCOC(=O)C(CCCCCC)CCCCCCCC)CCOC(=O)NCCN(C)C (stereo not drawn) [Lipid 66, heptadecan-9-yl 10-(8-((2-hexyldecanoyl)oxy)octyl)-2-methyl-6-oxo-7-oxa-2,5,10-triazaoctadecan-18-oate] | 96% | 88.25% | 1.43 mm | 51.97 IU/L | 63.6 IU/L | 0.05 | 86.66 | 0.09823 | 75.46 | 2.03E+09 | 3.50E+09 | 7911.52 pg/mL | 448.43 pg/mL | 176.40 IU/L | 148.60 IU/L | −2.1 mV | 2.213 mV | 93% | 82% | 100% | In vitro Viability RAW (RAW 264.7 cells [9]; [15]): 72%; In vitro Expression HepG2 (Hep G2 cells [10]; [17]): 9.78E+07; In vitro Expression HepG2 (Hep G2 cells [10]; [18]): 1.59E+08; In vitro Expression RAW (RAW 264.7 cells [11]; [19]): 9.90E+06; In vitro Expression RAW (RAW 264.7 cells [11]; [18]): 6.79E+06
4 | CCCCCCCCCCC(CCCCCCCC)COC(=O)CCCCCN(CCCCCC(=O)OCC(CCCCCCCC)CCCCCCCCCC)CCCOC(=O)NCCN1CCCC1 (stereo not drawn) [Lipid 369] | 97% | 92.99% | 0.57 mm | 158.00 IU/L | 121.00 IU/L | 0.1084 | 93.14 | 0.1166 | 120.9 | 1.30E+07 | 6.54E+08 | 6463.00 pg/mL | 1338.00 pg/mL | 364.00 IU/L | 290.00 IU/L | 4.427 mV | 10 mV | 78% | 94% | 61% | In vitro Viability RAW (RAW 264.7 cells [9]; [15]): 90%; In vitro Expression HepG2 (Hep G2 cells [10]; [17]): 1.04E+06; In vitro Expression HepG2 (Hep G2 cells [10]; [18]): 7.28E+07; In vitro Expression RAW (RAW 264.7 cells [11]; [19]): 1.84E+05; In vitro Expression RAW (RAW 264.7 cells [11]; [18]): 2.18E+07
5 | CCCCC/C=C\C/C=C\CCCCCCCCN(CCCCCCCC(=O)OC(CCCCCCCC)CCCCCCCC)CCOC(=O)NCCCN(CC)CC [Lipid 131, heptadecan-9-yl 3-ethyl-12-((9Z,12Z)-octadeca-9,12-dien-1-yl)-8-oxo-9-oxa-3,7,12-triazaicosan-20-oate] | 96% | 90.68% | 1.17 mm | 51.17 IU/L | 44.57 IU/L | 0.22 | 74.78 | 0.1606 | 84.16 | 2.27E+08 | 4.52E+07 | 5003.82 pg/mL | 16.42 pg/mL | 161.27 IU/L | 83.17 IU/L | 5.61 mV | 15.29 mV | 83% | 89% | 77% | In vitro Viability RAW (RAW 264.7 cells [9]; [15]): 96%; In vitro Expression HepG2 (Hep G2 cells [10]; [17]): 4.49E+06; In vitro Expression HepG2 (Hep G2 cells [10]; [18]): 5.66E+06; In vitro Expression RAW (RAW 264.7 cells [11]; [19]): 4.04E+06; In vitro Expression RAW (RAW 264.7 cells [11]; [18]): 9.55E+05
6 | CCCCC/C=C\C/C=C\CCCCCCCCN(CCCCCCCC(=O)OC(CCCCCCCC)CCCCCCCC)CCCOC(=O)NCCN1CCCCC1 [Lipid 278] | 96% | 86.19% | 0.63 mm | 177.33 IU/L | 102.50 IU/L | 0.1471 | 91.92 | 0.1831 | 119 | 1.19E+08 | 2.18E+08 | 1815.67 pg/mL | 1070.74 pg/mL | 275.33 IU/L | 322.67 IU/L | 0.06032 mV | 0.3567 mV | 91% | 100% | 132% | In vitro Viability RAW (RAW 264.7 cells [9]; [15]): 83%; In vitro Expression HepG2 (Hep G2 cells [10]; [17]): 2.22E+07; In vitro Expression HepG2 (Hep G2 cells [10]; [18]): 3.75E+07; In vitro Expression RAW (RAW 264.7 cells [11]; [19]): 8.67E+06; In vitro Expression RAW (RAW 264.7 cells [11]; [18]): 6.01E+06
